Results published in ChEMBL document CHEMBL5696439 (Cancer Res, 2010).
Activity calls are given as the source filed them. The calls are words filed in the database; no cut-off is given here.

Legend:
U-87 MG = assay: Antitumor activity against human U-87MG cells assessed as reduction in HIF-1alpha level at 0.025 to 2 micromol/L incubated for 6 hrs by immunoblot analysis; type: functional, cell-based; conditions: U-87MG ATCC, dose 0.025-2 µmol/L
PC3MM2 = assay: Antitumor activity against human PC3MM2 cells xenografted in female nude mouse model assessed as suppression in P-S6K at T389 level at 50 mg/kg, iv administered once a week and measured at least 8 hrs by immunoblot analysis; type: functional, organism-based
[1] = target: Tyrosine-protein kinase Fgr (Homo sapiens) (UniProt P09769); assay: Inhibition of recombinant human full-length His-tagged FGR expressed in insect cells at 2 uM using Tyr 02 as substrate measured after 1 hr by Z'-LYTE assay relative to control; conditions: Insect cell
[2] = target: G protein-coupled receptor kinase 6 (Homo sapiens) (UniProt P43250); assay: Inhibition of recombinant human full-length GST-tagged GRK6 expressed in insect cells at 2 uM using Ser/Thr 16 as substrate measured after 1 hr by Z'-LYTE assay relative to control; conditions: Insect cell
[3] = system: Tyrosine-protein kinase ABL1 (Homo sapiens), P00519 [G250E]; assay: Inhibition of recombinant human full-length His-tagged ABL1 G250E mutant expressed in insect cells at 2 uM using Tyr 02 as substrate measured after 1 hr by Z'-LYTE assay relative to control; conditions: Insect cell
[4] = target: Fibroblast growth factor receptor 1 (Homo sapiens) (UniProt P11362); assay: Inhibition of recombinant human His-tagged FGFR1 (308-731 residues) expressed in baculovirus expression system at 2 uM using Tyr 04 as substrate measured after 1 hr by Z'-LYTE assay relative to control
MDA-MB-361 [5] = assay: Antiproliferative activity against human MDA-MB-361 cells assessed as cell growth inhibition incubated for 24 hrs by MTS assay; type: functional, cell-based; conditions: MDA-MB-361, 24 h
HeLa = assay: Antiproliferative activity against human HeLa cells assessed as cell growth inhibition incubated for 24 hrs by MTS assay; type: functional, cell-based
MG-63 = assay: Antiproliferative activity against human MG-63 cells assessed as cell growth inhibition incubated for 24 hrs by MTS assay; type: functional, cell-based; conditions: MG-63, 24 h
[6] = target: Receptor-type tyrosine-protein kinase FLT3 (Homo sapiens) (UniProt P36888); assay: Inhibition of recombinant human His-tagged FLT3 (564-958 residues) expressed in insect cells at 2 uM using Tyr 02 as substrate measured after 1 hr by Z'-LYTE assay relative to control; conditions: Insect cell
[7] = target: Proto-oncogene tyrosine-protein kinase Src (Homo sapiens) (UniProt P12931); assay: Inhibition of recombinant human full length His-tagged SRC expressed in insect cells at 2 uM using Tyr 02 as substrate measured after 1 hr by Z'-LYTE assay relative to control; conditions: Insect cell
MDA-MB-361 [8] = assay: Antitumor activity against human MDA-MB-361 cells xenografted in female nude mouse model assessed as suppression in P-AKT at S473 level at 6 to 12 mg/kg, po qd administered as 5 days on/2 days off regimen for 4 cycles by immunoblot analysis; type: functional, organism-based; conditions: dose 6-12 mg/kg, time 28.0 day
A498 [9] = assay: Antiproliferative activity against human A498 cells assessed as reduction in cell size at 1 micromol/L incubated for 48 hrs by Flow cytometry analysis relative to control; type: functional; set-up: scale not given: the % may be the effect or the level left; conditions: dose 1 µmol/L, at 1 µM
HEK293 = assay: Antiproliferative activity against HEK293 cells assessed as reduction in polysomes at 0.5 micromol/L incubated for 16 hrs; type: functional, Homo sapiens; conditions: dose 0.5 µmol/L
NCI-H1975 = assay: Antiproliferative activity against human NCI-H1975 cells assessed as cell growth inhibition incubated for 24 hrs by MTS assay; type: functional, cell-based; conditions: NCI-H1975, 24 h
[10] = target: Serine/threonine-protein kinase MRCK alpha (Homo sapiens) (UniProt Q5VT25); assay: Inhibition of recombinant human His-tagged CDC42BPA (1-473 residues) expressed in baculovirus expression system at 2 uM using Ser/Thr 13 as substrate measured after 1 hr by Z'-LYTE assay relative to control
[11] = target: Mitogen-activated protein kinase 9 (Homo sapiens) (UniProt P45984); assay: Inhibition of recombinant human full length His-tagged MAPK9 expressed in baculovirus expression system at 2 uM using Ser/Thr 04 as substrate measured after 1 hr by Z'-LYTE assay relative to control
A549 = assay: Antitumor activity against human A549 cells xenografted in female nude mouse model assessed as suppression in tumor growth at 25 mg/kg, po qd administered as 5 days on/2 days off regimen for 4 cycles relative to control; type: functional; conditions: time 28 day
[12] = target: Platelet-derived growth factor receptor alpha (Homo sapiens) (UniProt P16234); assay: Inhibition of recombinant human GST-tagged PDGFRA (550-1089 residues) expressed in baculovirus expression system at 2 uM using Tyr 04 as substrate measured after 1 hr by Z'-LYTE assay relative to control
[13] = target: Tyrosine-protein kinase receptor UFO (Homo sapiens) (UniProt P30530); assay: Inhibition of recombinant human His-tagged AXL (473 to end residues) expressed in insect cells at 2 uM using Tyr 06 as substrate measured after 1 hr by Z'-LYTE assay relative to control; conditions: Insect cell
[14] = target: Serine/threonine-protein kinase 3 (Homo sapiens) (UniProt Q13188); assay: Inhibition of recombinant human full length GST-tagged STK3 expressed in insect cells at 2 uM using Ser/Thr 07 as substrate measured after 1 hr by Z'-LYTE assay relative to control; conditions: Insect cell
A498 [15] = assay: Antitumor activity against human A498 cells xenografted in female nude mouse model assessed as tumor regression at 50 mg/kg, po qd administered as 5 days on/2 days off regimen for 4 cycles; type: functional, organism-based; conditions: time 28.0 day
[16] = system: Hepatocyte growth factor receptor (Homo sapiens), P08581 [M1250T]; assay: Inhibition of recombinant human His-tagged MET M1250T mutant (956-1390 residues) expressed in insect cells at 2 uM using Tyr 06 as substrate measured after 1 hr by Z'-LYTE assay relative to control; conditions: Insect cell
[17] = target: Serine/threonine-protein kinase Chk1 (Homo sapiens) (UniProt O14757); assay: Inhibition of recombinant human full-length His-tagged CHEK1 expressed in baculovirus expression system at 2 uM using Ser/Thr 19 as substrate measured after 1 hr by Z'-LYTE assay relative to control
[18] = target: Muscle, skeletal receptor tyrosine-protein kinase (Homo sapiens) (UniProt O15146); assay: Inhibition of recombinant human GST-tagged MUSK (519-869 residues) expressed in insect cells at 2 uM using Tyr 04 as substrate measured after 1 hr by Z'-LYTE assay relative to control; conditions: Insect cell
[19] = target: Protein-tyrosine kinase 2-beta (Homo sapiens) (UniProt Q14289); assay: Inhibition of recombinant human full length GST-tagged PTK2B expressed in insect cells at 2 uM using Tyr 01 as substrate measured after 1 hr by Z'-LYTE assay relative to control; conditions: Insect cell
A498 [20] = assay: cells; conditions: Homo sapiens, A498, 72 h
Description: Antiproliferative activity against human A498 cells assessed as cell growth inhibition incubated for 3 days by MTS assay

Sequence of Serine/threonine-protein kinase Chk1 (Homo sapiens) (O14757 whole entry, the tested form may be a part): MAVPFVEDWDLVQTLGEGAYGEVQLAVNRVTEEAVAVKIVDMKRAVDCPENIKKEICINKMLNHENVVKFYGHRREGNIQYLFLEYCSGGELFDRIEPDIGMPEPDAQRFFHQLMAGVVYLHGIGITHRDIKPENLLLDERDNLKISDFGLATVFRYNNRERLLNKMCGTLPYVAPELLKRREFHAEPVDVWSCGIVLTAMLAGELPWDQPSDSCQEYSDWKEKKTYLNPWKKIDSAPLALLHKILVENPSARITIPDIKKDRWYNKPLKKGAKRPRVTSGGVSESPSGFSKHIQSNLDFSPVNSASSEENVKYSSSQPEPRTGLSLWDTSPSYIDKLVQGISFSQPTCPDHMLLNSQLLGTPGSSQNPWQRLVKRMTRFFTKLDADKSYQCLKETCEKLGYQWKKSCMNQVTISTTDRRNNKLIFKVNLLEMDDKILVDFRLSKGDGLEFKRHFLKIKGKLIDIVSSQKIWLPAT
Sequence of Fibroblast growth factor receptor 1 (Homo sapiens) (P11362 22-822 limits assumed): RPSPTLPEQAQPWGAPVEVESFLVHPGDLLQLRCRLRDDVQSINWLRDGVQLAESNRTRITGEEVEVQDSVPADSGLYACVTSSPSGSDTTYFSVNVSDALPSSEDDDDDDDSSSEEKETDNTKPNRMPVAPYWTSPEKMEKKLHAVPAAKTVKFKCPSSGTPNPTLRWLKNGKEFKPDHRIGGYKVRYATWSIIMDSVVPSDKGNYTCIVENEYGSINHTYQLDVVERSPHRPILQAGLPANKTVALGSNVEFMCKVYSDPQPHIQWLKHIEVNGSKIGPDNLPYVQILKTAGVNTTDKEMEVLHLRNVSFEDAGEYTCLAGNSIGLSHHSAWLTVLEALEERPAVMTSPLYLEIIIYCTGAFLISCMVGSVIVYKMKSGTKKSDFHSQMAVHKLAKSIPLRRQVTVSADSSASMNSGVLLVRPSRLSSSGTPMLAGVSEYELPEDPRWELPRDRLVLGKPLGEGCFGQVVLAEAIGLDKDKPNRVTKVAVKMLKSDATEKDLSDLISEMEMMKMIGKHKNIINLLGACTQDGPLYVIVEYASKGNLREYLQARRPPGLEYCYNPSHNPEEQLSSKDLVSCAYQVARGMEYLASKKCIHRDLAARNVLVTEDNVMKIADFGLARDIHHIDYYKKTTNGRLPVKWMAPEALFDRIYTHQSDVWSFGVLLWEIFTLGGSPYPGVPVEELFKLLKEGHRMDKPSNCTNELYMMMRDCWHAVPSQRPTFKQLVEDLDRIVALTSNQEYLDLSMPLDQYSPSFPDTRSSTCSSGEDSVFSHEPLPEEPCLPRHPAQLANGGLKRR
Sequence of Mitogen-activated protein kinase 9 (Homo sapiens) (P45984 whole entry, looked up): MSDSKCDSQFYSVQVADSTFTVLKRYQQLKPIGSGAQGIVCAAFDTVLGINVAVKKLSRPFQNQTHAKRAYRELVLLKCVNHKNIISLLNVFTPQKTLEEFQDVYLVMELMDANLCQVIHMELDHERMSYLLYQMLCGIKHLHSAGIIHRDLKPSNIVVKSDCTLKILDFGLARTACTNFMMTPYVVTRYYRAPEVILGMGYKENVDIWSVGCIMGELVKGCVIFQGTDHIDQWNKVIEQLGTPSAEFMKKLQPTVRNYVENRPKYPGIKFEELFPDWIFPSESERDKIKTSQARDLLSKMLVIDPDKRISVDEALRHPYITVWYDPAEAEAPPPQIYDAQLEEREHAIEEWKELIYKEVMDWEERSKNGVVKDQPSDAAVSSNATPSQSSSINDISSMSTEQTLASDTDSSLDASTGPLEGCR
Sequence of G protein-coupled receptor kinase 6 (Homo sapiens) (P43250 whole entry, looked up): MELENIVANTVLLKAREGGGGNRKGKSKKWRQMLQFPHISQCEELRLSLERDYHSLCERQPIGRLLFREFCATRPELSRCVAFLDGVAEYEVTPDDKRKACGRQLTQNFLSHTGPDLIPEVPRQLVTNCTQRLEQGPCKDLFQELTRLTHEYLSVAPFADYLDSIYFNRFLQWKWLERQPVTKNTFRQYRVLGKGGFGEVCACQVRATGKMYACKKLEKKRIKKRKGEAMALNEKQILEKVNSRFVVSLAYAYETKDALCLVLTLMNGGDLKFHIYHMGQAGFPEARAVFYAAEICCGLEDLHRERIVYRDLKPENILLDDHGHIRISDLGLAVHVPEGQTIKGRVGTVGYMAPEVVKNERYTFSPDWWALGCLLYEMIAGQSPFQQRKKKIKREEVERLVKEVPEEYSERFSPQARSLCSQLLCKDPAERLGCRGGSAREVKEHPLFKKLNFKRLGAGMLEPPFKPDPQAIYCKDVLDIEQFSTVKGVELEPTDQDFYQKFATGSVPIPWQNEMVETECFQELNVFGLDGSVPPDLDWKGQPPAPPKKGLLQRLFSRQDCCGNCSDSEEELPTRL
Sequence of Platelet-derived growth factor receptor alpha (Homo sapiens) (P16234 whole entry, the tested form may be a part): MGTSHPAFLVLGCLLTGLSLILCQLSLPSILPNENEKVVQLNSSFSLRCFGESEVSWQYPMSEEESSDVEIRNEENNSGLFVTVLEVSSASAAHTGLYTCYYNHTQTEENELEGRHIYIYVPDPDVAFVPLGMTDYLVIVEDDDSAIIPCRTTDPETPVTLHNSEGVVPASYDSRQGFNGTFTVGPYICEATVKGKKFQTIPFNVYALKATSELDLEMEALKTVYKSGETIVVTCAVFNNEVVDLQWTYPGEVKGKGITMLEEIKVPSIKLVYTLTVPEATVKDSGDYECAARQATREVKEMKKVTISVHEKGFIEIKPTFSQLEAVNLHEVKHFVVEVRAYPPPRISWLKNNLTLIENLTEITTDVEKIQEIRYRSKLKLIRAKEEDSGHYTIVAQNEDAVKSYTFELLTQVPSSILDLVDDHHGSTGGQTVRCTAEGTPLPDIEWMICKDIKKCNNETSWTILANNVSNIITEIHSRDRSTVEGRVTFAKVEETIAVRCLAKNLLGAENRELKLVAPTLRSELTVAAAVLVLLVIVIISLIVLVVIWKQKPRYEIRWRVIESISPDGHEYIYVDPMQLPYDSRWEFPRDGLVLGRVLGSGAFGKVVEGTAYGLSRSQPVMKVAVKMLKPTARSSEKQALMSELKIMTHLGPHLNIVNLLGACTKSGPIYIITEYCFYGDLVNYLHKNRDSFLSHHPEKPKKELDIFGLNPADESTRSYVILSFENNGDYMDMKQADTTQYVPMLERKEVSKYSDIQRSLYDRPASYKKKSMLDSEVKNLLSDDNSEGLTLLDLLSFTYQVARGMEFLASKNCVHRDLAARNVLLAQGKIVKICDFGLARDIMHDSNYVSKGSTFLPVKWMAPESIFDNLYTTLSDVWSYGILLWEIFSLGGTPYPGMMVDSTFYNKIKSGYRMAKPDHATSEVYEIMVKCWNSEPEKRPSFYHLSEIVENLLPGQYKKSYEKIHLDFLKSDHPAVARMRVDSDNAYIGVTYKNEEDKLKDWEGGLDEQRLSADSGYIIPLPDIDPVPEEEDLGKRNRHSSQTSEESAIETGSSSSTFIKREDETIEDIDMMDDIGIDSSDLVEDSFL
Sequence of Proto-oncogene tyrosine-protein kinase Src (Homo sapiens) (P12931 2-536 limits assumed): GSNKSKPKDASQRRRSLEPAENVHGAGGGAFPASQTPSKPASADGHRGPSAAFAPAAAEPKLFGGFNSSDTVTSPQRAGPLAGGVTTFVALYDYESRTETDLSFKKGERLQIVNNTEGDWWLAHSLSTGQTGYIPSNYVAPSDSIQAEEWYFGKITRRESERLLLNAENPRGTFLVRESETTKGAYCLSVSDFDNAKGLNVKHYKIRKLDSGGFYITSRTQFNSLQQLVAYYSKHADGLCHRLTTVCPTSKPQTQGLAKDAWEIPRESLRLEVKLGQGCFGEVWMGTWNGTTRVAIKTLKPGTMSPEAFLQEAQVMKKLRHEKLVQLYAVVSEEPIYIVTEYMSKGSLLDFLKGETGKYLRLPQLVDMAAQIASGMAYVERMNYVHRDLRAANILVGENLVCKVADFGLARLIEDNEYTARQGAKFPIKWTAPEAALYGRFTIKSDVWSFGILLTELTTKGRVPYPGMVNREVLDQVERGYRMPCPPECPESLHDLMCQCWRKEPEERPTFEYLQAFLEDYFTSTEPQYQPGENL
Sequence of Muscle, skeletal receptor tyrosine-protein kinase (Homo sapiens) (O15146 whole entry, the tested form may be a part): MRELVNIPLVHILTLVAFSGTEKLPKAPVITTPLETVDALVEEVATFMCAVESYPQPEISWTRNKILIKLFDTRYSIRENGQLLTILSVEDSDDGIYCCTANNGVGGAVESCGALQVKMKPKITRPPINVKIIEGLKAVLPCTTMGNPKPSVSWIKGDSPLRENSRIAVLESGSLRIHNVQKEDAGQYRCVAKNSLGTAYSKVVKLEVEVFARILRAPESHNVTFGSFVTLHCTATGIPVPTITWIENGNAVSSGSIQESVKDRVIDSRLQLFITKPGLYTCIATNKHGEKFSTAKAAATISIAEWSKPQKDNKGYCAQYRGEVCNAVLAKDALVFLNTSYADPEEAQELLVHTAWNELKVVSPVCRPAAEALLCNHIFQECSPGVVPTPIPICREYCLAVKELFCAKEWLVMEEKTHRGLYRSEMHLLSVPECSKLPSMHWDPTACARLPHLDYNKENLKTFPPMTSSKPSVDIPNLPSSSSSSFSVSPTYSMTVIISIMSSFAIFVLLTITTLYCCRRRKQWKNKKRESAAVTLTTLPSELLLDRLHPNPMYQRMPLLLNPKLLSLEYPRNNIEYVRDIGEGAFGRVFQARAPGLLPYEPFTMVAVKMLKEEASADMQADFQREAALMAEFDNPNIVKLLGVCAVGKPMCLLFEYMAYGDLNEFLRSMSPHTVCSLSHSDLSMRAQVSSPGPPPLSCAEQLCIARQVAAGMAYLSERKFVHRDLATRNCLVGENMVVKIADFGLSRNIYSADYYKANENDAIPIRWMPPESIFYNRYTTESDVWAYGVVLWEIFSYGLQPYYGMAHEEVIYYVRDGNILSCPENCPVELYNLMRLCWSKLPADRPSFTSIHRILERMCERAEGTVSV

With CNC(=O)Nc1ccc(-c2nc(N3CC4CCC(C3)O4)c3cnn(C4CCC5(CC4)OCCO5)c3n2)cc1 the Activity (U-87 MG) was “Active”, the Activity (PC3MM2) was “Active” and the inhibition [1] was 1%. It also gave an inhibition [2] of -1%, an inhibition [3] of 3% and an inhibition [4] of 4%. The IC50 (MDA-MB-361 [5]) was 24 nM, the IC50 (HeLa) was 55 nM and the IC50 (MG-63) was 25 nM. For the same compound, the inhibition [6] was 17%, the inhibition [7] was 3% and the Activity (MDA-MB-361 [8]) was “Active”. For the same compound, the Activity (A498 [9]) was 83%, the Activity (HEK293) was 0.58 and the IC50 (NCI-H1975) was 70 nM. The inhibition [10] was 7%, the inhibition [11] was 11% and the Activity (A549) was 100%. For the same compound, the inhibition [12] was 0%, the inhibition [13] was 2% and the inhibition [14] was 0%. For the same compound, the Activity (A498 [15]) was “Active”, the inhibition [16] was 1% and the inhibition [17] was 9%. The inhibition [18] was 15%, the inhibition [19] was -3% and the IC50 (A498 [20]) was 100 nM.
